{
  "source": "patent US20250213519A1",
  "about": "“SYNERGY FOR INCREASING INSULIN SENSITIVITY” (Board of Supervisors of Louisiana State University and …, priority 2022, published 2025)",
  "key": {"[1]": {"conditions": "25° C.; cited from earlier work"}, "[2]": {"conditions": "single dose injection; cited from earlier work"}, "[3]": {"test_system": "primary islets", "conditions": "up to 100 μm, 24 h; cited from earlier work"}, "[4]": {"test_system": "cytochrome P450 and drug efflux pumps like P-glycoprotein", "conditions": "enhances availability of co-administered tamoxifen and losartan in rats; cited from earlier work"}, "[5]": {"conditions": "cited from earlier work; for solubility in an acidic solution: acetic acid buffered"}, "[6]": {"conditions": "oral administration, high fat diet; cited from earlier work"}, "[7]": {"experiment": "Pharmacokinetics of myricetin in rats", "assay_type": "in vivo", "conditions": "plasma, po, from Table 1 (rat), converted"}, "[8]": {"biological_target": "GLP-1R (Homo sapiens, UniProt P43220)", "sequence (P43220 24-463, species assumed)": "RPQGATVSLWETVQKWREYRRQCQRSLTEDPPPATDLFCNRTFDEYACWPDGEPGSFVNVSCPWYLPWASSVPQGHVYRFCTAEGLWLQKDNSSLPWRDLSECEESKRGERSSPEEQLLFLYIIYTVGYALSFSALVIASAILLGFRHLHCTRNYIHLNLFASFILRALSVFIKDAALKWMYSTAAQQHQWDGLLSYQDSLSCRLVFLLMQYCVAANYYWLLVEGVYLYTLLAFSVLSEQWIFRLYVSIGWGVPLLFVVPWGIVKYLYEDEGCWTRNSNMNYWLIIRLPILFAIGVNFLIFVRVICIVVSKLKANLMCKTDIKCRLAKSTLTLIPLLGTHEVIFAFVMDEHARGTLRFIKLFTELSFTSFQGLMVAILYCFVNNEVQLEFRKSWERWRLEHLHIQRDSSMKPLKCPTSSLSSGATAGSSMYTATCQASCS", "conditions": "cited from earlier work"}, "[9]": {"test_system": "human adipocytes", "experiment": "mRNA levels (qRT-PCR) in human adipocyte cultures treated for seven days", "assay_type": "cell-based", "conditions": "50 nM myricetin alone, 7 days"}, "[10]": {"conditions": "0.12% myricetin in high fat and sucrose diet; cited from earlier work"}, "[11]": {"biological_target": "CDK5 (Homo sapiens, UniProt Q00535)", "sequence (Q00535 whole entry, species assumed)": "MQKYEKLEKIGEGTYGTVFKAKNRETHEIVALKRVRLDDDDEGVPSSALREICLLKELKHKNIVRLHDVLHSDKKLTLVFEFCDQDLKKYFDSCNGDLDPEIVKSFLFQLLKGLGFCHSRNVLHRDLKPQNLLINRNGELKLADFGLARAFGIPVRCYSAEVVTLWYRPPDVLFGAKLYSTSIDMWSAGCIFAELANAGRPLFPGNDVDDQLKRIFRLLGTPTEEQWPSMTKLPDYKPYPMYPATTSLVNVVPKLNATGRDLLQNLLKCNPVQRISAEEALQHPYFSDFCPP", "sequence (Q15078 whole entry partner, species assumed)": "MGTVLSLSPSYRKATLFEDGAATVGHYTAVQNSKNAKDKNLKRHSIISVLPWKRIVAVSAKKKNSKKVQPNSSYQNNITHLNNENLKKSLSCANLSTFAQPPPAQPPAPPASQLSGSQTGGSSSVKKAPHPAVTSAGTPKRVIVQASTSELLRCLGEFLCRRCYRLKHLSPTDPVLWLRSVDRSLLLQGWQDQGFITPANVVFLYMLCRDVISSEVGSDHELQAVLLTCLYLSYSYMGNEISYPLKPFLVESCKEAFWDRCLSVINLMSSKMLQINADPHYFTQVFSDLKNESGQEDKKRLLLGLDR", "conditions": "cited from earlier work"}, "[12]": {"test_system": "human adipocytes", "experiment": "Protein levels by Western blotting in human adipocytes treated for seven days", "assay_type": "cell-based", "conditions": "for PGC-1α protein, myricetin added to NRBC: 50 nM myricetin + NRBC, compared to NRBC"}, "[13]": {"experiment": "Myricetin toxicity in mice", "assay_type": "in vivo", "conditions": "converted for human"}, "[14]": {"test_system": "rat islets", "conditions": "rat islets incubated in high glucose; cited from earlier work"}, "[15]": {"test_system": "human adipocytes", "experiment": "Protein levels by Western blotting in human adipocytes treated for seven days", "assay_type": "cell-based", "conditions": "for SIRT3 protein levels, NR combined with myricetin: 8 μM NR + 50 nM myricetin vs NR or myr alone", "source_text": "Since we saw an increase in SIRT3 mRNA and myricetin upregulates SIRT3 protein in adipocytes from mice, we analyzed levels of SIRT3 protein in human adipocytes treated for seven days with the same concentrations of compounds. Protein was isolated from adipocytes and analyzed on immunoblots probed with antibodies that specifically bind human SIRT3 or human β-actin. […] However, adding myr to NR+BC boosted SIRT3 protein by 37%.\n(§1) Human adipose-derived stem cells from overweight and obese female donors were purchased from LaCell, LLC (New Orleans, Louisiana) or isolated from lipoaspirate waste donated post-surgery from women with obesity using methods as previously described (31). Cells were seeded, maintained until two days after becoming confluent, and differentiated into adipocytes in the presence of rosiglitazone and isobutylmethylxanthine for five days as previously described (25). Treatments of adipocytes with 8 μM NR and 2 μM carotenoid, dissolved in DMSO at 1000×, started 5 days after the differentiation period and lasted for seven days in adipocyte maintenance medium with heat inactivated serum, before RNA and protein were isolated from adipocyte cultures.\nWhole cell protein was isolated from differentiated cell cultures after treatment for seven days, lysed with RIPA buffer containing protease and phosphatase inhibitors, and pushed through a 20-gauge needle four times to disrupt organelles. Fifty micrograms of total cell protein were loaded per lane and resolved in 7.5% SDS-PAGE gels, transferred to nitrocellulose membranes, and probed overnight at 4° C. with specific primary antibodies. Anti-rabbit or -mouse secondary antibodies conjugated to horseradish peroxidase were used for detection of target proteins. Image J was used to quantify protein bands on Western blots. To adjust for variations in total protein loaded in each lane, β-actin was used."}, "[16]": {"test_system": "human adipocytes", "experiment": "mRNA levels (qRT-PCR) in human adipocyte cultures treated for seven days", "assay_type": "cell-based", "conditions": "for effects on gene expression of myricetin added to NRBC: added to nar ext + β-carotene, nanomolar myricetin", "source_text": "In adipocytes, CDK5 inhibitors reduce adipogenesis and increase genes for energy expenditure by altering PPARγ target gene selection. We measured the expression of the PPARα/γ direct target gene UCP1 after treating human adipocyte cultures with CDK5-inhibiting flavonols combined with naringenin for seven days.\nas §1, with “[…],” for “Treatments of adipocytes with 8 μM NR and 2 μM carotenoid,”\nQuantitative reverse transcriptase and real-time PCR were conducted in one reaction with the gene-specific reverse PCR primer also priming the cDNA synthesis as previously described (25). Primer-probe sequences for UCP1, GLUT4, ATGL, adiponectin, PGC-1α and ribosomal RPL13A, used to adjust target gene values for total RNA in each sample, have been previously reported (25). […] Predesigned human primer and probe sets from Thermofisher Scientific are PM20D1 Hs00399438_m1; ANGPTL4 Hs00211522_m1; GDF11 Hs00195156_m1; S100B Hs00902901_m1."}, "[17]": {"conditions": "cited from earlier work"}, "[18]": {"conditions": "rats orally administered 50 mg/kg and 100 mg/kg"}},
  "note": "Entries after “also recorded” stand apart in the source; their conditions may differ. Like-named read-outs stand apart in the source and are kept apart here.",
  "data": [
    {"smiles": "O=c1c(O)c(-c2cc(O)c(O)c(O)c2)oc2cc(O)cc(O)c12", "note": "[myricetin]", "values": [
      {"measurement": "stability half-life", "setting": "[1]", "result": 23, "unit": "h"},
      {"measurement": "blood glucose levels", "setting": "[2]", "result": "maintained reduced blood glucose levels for eight hours"},
      {"measurement": "viability of primary islets", "setting": "[3]", "result": "no loss of viability"},
      {"measurement": "inhibition of cytochrome P450 and efflux pumps", "setting": "[4]", "result": "inhibits cytochrome P450 and drug efflux pumps like P-glycoprotein"},
      {"measurement": "solubility in an acidic solution", "setting": "[5]; pH 1", "result": 777, "unit": "µg/mL"},
      {"measurement": "solubility in an acidic solution", "setting": "[5]; pH 2", "result": 576, "unit": "µg/mL"},
      {"measurement": "solubility in an acidic solution", "setting": "[5]; pH 3", "result": 150, "unit": "µg/mL"},
      {"measurement": "aqueous solubility", "setting": "[5]; aqueous", "result": 17, "unit": "µg/mL"},
      {"measurement": "fatty liver disease and circulating triglycerides", "setting": "[6]", "result": "improved fatty liver disease and lowered circulating triglycerides"},
      {"measurement": "Cmax", "setting": "[7]; first value (50 mg/kg p.o.)", "result": 5, "unit": "µM"},
      {"measurement": "Cmax", "setting": "[7]; second value (100 mg/kg p.o.)", "result": 8.7, "unit": "µM"},
      {"measurement": "GLP-1R agonist activity", "setting": "[8]", "result": "activity as a GLP-1R agonist at low micromolar concentrations"},
      {"measurement": "SIRT1 or SIRT3 mRNA levels", "setting": "[9]", "result": "no effect"},
      {"measurement": "adiposity, circulating glucose and insulin", "setting": "[10]", "result": "reductions in adiposity, and circulating glucose and insulin"},
      {"measurement": "CDK5 kinase activity inhibition EC50 (in words)", "setting": "[11]", "result": "low micromolar range"},
      {"measurement": "EC50", "setting": "[11]; read-out: CDK5 inhibition EC50", "result": 71, "unit": "µM"},
      {"measurement": "PGC-1α protein, myricetin added to NR", "setting": "[12]; 50 nM myricetin + 8 μM NR", "result": "small increase"},
      {"measurement": "PGC-1α protein, myricetin added to NRBC", "setting": "[12]", "result": "two-fold higher"},
      {"measurement": "PGC-1α protein, myricetin added to NRBC", "setting": "[12]; listed as Myricetin", "result": "over two-fold"},
      {"measurement": "PGC-1α protein levels", "setting": "[12]; 50 nM myricetin, 7 days", "result": "robustly upregulated"},
      {"measurement": "Tox, human equivalent", "setting": "[13]", "result": 11, "unit": "g"},
      {"measurement": "insulin release", "setting": "[14]", "result": "stimulated insulin release"},
      {"measurement": "SIRT3 protein levels, NR combined with myricetin", "setting": "[15]", "result": "does not increase SIRT3 protein levels"},
      {"measurement": "SIRT3 protein levels, NR combined with myricetin", "setting": "[15]; listed as Myricetin", "result": "did not increase SIRT3 protein levels"},
      {"measurement": "SIRT3 protein levels, single agent", "setting": "[15]; 8 μM NR or 50 nM myricetin, 7 days", "result": "upregulate SIRT3 protein levels"},
      {"measurement": "increase in SIRT3 protein", "setting": "[15]; myr added to NR+BC", "result": 37, "unit": "%"},
      {"measurement": "increase in SIRT3 mRNA and protein", "setting": "[15]; myr added to NRBC (summary)", "result": "two-fold"},
      {"measurement": "UCP1 and GLUT4 mRNA, flavonol combined with naringenin", "setting": "[16]; 2.5 μM flavonol + 8 μM naringenin extract, 7 days, vs naringenin alone (FIG. 1)", "result": "synergistically increased expression of UCP1 and GLUT4"},
      {"measurement": "most active myricetin concentration with naringenin extract and β-carotene", "setting": "[16]; 25, 50 and 100 nM tested with NRBC", "result": 50, "unit": "nM"},
      {"measurement": "myricetin concentration with most potent upregulation of gene expression", "setting": "[16]; added to 8 μM naringenin, 0.1 μM to 6 μM tested", "result": 0.1, "unit": "µM"},
      {"measurement": "effects on gene expression of myricetin added to NRBC", "setting": "[16]", "result": "further upregulates gene expression; also recorded: almost doubles; also recorded: approximately doubles"},
      {"measurement": "effects on gene expression of myricetin added to NRBC", "setting": "[16]; listed as Myricetin", "result": "enhances the effects on gene expression"},
      {"measurement": "increase in UCP-1 and GLUT-4 with naringenin", "setting": "[16]; human fat cells, myricetin with naringenin", "result": "many fold greater increase in UCP-1 and GLUT-4"},
      {"measurement": "gene expression, myricetin alone", "setting": "[16]; low nanomolar concentrations, 7 days", "result": "no effect at any concentration"},
      {"measurement": "effects on gene expression combined with naringenin", "setting": "[16]; myricetin 5 nM + 8 μM naringenin ext", "result": "slightly reduced"},
      {"measurement": "effects on gene expression combined with naringenin", "setting": "[16]; myricetin 50 nM and 25 nM + 8 μM naringenin ext", "result": "remained strong"},
      {"measurement": "upregulation of thermogenic gene expression and adiponectin", "setting": "[16]; myricetin added to naringenin alone or to naringenin and beta carotene", "result": "approximately doubles"},
      {"measurement": "AUC0-∞", "setting": "[17]; rat, i.v., 0.5 mg/kg", "result": "1452.85 ± 170.30", "unit": "ng·h/mL"},
      {"measurement": "CL", "setting": "[17]; rat, i.v., 0.5 mg/kg", "result": "5.83 ± 0.83", "unit": "mL/min/kg"},
      {"measurement": "Cmax", "setting": "[17]; rat, i.v., 0.5 mg/kg", "result": "2232.16 ± 856.36", "unit": "ng/mL"},
      {"measurement": "Tmax", "setting": "[17]; rat, i.v., 0.5 mg/kg", "result": "0 (pre-dose) h"},
      {"measurement": "Vd", "setting": "[17]; rat, i.v., 0.5 mg/kg", "result": "4.12 ± 1.52", "unit": "L/kg"},
      {"measurement": "t1/2", "setting": "[17]; rat, i.v., 0.5 mg/kg", "result": "6.99 ± 1.94", "unit": "h"},
      {"measurement": "AUC0-∞", "setting": "[17]; rat, p.o., 50 mg/kg", "result": "13,731.13 ± 5,574.58 ng · h/mL"},
      {"measurement": "Bioavailability", "setting": "[17]; rat, p.o., 50 mg/kg", "result": 9.62, "unit": "%"},
      {"measurement": "Cmax", "setting": "[17]; rat, p.o., 50 mg/kg", "result": "1488.75 ± 200.78", "unit": "ng/mL"},
      {"measurement": "Tmax", "setting": "[17]; rat, p.o., 50 mg/kg", "result": "6.4 ± 0.89", "unit": "h"},
      {"measurement": "t1/2", "setting": "[17]; rat, p.o., 50 mg/kg", "result": "2.78 ± 0.81", "unit": "h"},
      {"measurement": "AUC0-∞", "setting": "[17]; rat, p.o., 100 mg/kg", "result": "28,081.62 ± 10,982.45 ng · h/mL"},
      {"measurement": "Bioavailability", "setting": "[17]; rat, p.o., 100 mg/kg", "result": 9.74, "unit": "%"},
      {"measurement": "Cmax", "setting": "[17]; rat, p.o., 100 mg/kg", "result": "2611.76 ± 1019.58", "unit": "ng/mL"},
      {"measurement": "Tmax", "setting": "[17]; rat, p.o., 100 mg/kg", "result": "5.2 ± 3.03", "unit": "h"},
      {"measurement": "t1/2", "setting": "[17]; rat, p.o., 100 mg/kg", "result": "3.79 ± 0.75", "unit": "h"},
      {"measurement": "oral bioavailability", "setting": "[17]; [18]", "result": "approximately 10%"},
      {"measurement": "time to maximal concentration (Tmax)", "setting": "[17]; [18]", "result": 6.5, "unit": "h"}
    ]}
  ]
}
